ChEMBL document CHEMBL1201862, “PubChem BioAssay data set” (2004)
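Five concentrations, 48 hours, 96-well plates. Here, GI50 denotes the concentration required for 50% inhibition of growth.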 Calls of active or inactive are those of the source. Rule as the data show it: active = GI50 up to about 1.1 µM and inactive = higher.

Key:
Assay in all cases: NCI anticancer screen, dose series, 48 h
A498 = test system: A498
HCT-116 = test system: HCT-116
HL-60 = test system: HL-60
HT-29 = test system: HT-29
NCI-H226 = test system: NCI-H226
NCI-H23 = test system: NCI-H23
OVCAR-3 = test system: OVCAR-3
OVCAR-8 = test system: OVCAR-8
SF-268 = test system: SF-268
SF-539 = test system: SF-539
SNB-19 = test system: SNB-19
SW-620 = test system: SW-620
U-251 = test system: U-251
UACC-257 = test system: UACC-257
UACC-62 = test system: UACC-62
UO-31 = test system: UO-31
CAKI-1 = test system: CAKI-1
HOP-62 = test system: HOP-62
HOP-92 = test system: HOP-92
RPMI-8226 = test system: RPMI-8226

Measured: GI50

O=Cc1ccccc1CCn1c(=O)c2cc3c(=O)n(CCc4ccccc4C=O)c(=O)c3cc2c1=O
inactive: A498 > 100 µM | HCT-116 > 100 µM | HL-60 > 100 µM | HT-29 > 100 µM | NCI-H226 > 100 µM | NCI-H23 > 100 µM | OVCAR-3 > 100 µM | OVCAR-8 > 100 µM | SF-268 > 100 µM | SF-539 > 100 µM | SNB-19 > 100 µM | SW-620 > 100 µM | U-251 > 100 µM | UACC-257 > 100 µM | UACC-62 > 100 µM | UO-31 > 100 µM

CCOC(=O)/C(Cl)=C(\C)Nc1nc2c(ccc3ccccc32)s1
inactive: A498 > 100 µM | CAKI-1 87.9 µM | HCT-116 25.5 µM | HL-60 38.1 µM | HOP-62 37.9 µM | HT-29 45.3 µM | NCI-H226 24.5 µM | NCI-H23 31.3 µM | OVCAR-3 46.8 µM | OVCAR-8 60.3 µM | SF-268 90.2 µM | SNB-19 > 100 µM | SW-620 36.4 µM | U-251 > 100 µM | UACC-257 91.8 µM | UACC-62 41.9 µM | UO-31 > 100 µM

COc1cc(C2S/C(=C/c3ccccc3)C(=O)N2c2ccccc2Cl)cc(OC)c1OC (configuration not stated)
inactive: A498 43.4 µM | CAKI-1 32.6 µM | HCT-116 19 µM | HOP-62 31.3 µM | HOP-92 14.3 µM | HT-29 19.1 µM | NCI-H226 > 100 µM | NCI-H23 24.3 µM | OVCAR-8 19.3 µM | SF-268 30.3 µM | SNB-19 35.5 µM | U-251 22.1 µM | UACC-257 45.5 µM | UACC-62 20 µM | UO-31 28.5 µM

COc1ccc2nc(-n3c(/C=C/c4ccccc4O)nc4ccccc4c3=O)sc2c1
inactive: A498 29.9 µM | CAKI-1 46 µM | HCT-116 25.5 µM | HL-60 43.4 µM | HOP-62 > 100 µM | HOP-92 60.8 µM | HT-29 50.2 µM | NCI-H226 36 µM | NCI-H23 47.6 µM | OVCAR-3 > 100 µM | OVCAR-8 > 100 µM | RPMI-8226 24.9 µM | SF-268 > 100 µM | SNB-19 35.5 µM | SW-620 > 100 µM | U-251 > 100 µM | UACC-257 > 100 µM | UACC-62 61.5 µM | UO-31 64.6 µM

Clc1nc(-[n+]2ccc(-c3ccncc3)cc2)nc(Nc2ccccc2)c1Cl
inactive: A498 > 100 µM | HCT-116 > 100 µM | HL-60 35.3 µM | HOP-62 > 100 µM | HOP-92 > 100 µM | HT-29 > 100 µM | NCI-H226 > 100 µM | NCI-H23 > 100 µM | OVCAR-3 > 100 µM | RPMI-8226 57.9 µM | SF-268 > 100 µM | SF-539 > 100 µM | SNB-19 > 100 µM | SW-620 66.8 µM | U-251 70.5 µM | UACC-257 > 100 µM | UACC-62 > 100 µM | UO-31 > 100 µM

Cc1ccc(S(=O)(=O)OCCN(CCOS(=O)(=O)c2ccc(C)cc2)c2ccc(C=O)cc2)cc1
inactive: A498 24.9 µM | CAKI-1 21.1 µM | HCT-116 30.1 µM | HL-60 42.3 µM | HOP-92 26.1 µM | HT-29 32.1 µM | NCI-H23 36.2 µM | OVCAR-3 23.7 µM | OVCAR-8 41.8 µM | RPMI-8226 38.4 µM | SF-268 46.6 µM | SF-539 24.8 µM | SNB-19 60.8 µM | SW-620 29.6 µM | U-251 24.3 µM | UACC-257 24.8 µM | UACC-62 20 µM | UO-31 19.5 µM

CO[C@H]1SC[C@H](OC(C)=O)[C@H](OC(C)=O)[C@H]1OC(C)=O
inactive: CAKI-1 > 100 µM | HCT-116 > 100 µM | HL-60 > 100 µM | HOP-62 > 100 µM | HT-29 > 100 µM | NCI-H226 > 100 µM | NCI-H23 > 100 µM | OVCAR-3 > 100 µM | OVCAR-8 > 100 µM | RPMI-8226 > 100 µM | SF-268 > 100 µM | SF-539 > 100 µM | SNB-19 > 100 µM | SW-620 > 100 µM | U-251 > 100 µM | UACC-257 > 100 µM | UACC-62 93.8 µM | UO-31 > 100 µM

COC(=O)C1=Nc2c(C)nn(-c3ccccc3)c2N=C(c2ccccc2)C1
inactive: CAKI-1 > 10 µM | HCT-116 > 10 µM | HL-60 > 10 µM | HOP-62 > 10 µM | HOP-92 > 10 µM | HT-29 > 10 µM | NCI-H23 > 10 µM | OVCAR-3 > 10 µM | OVCAR-8 > 10 µM | RPMI-8226 > 10 µM | SF-268 > 10 µM | SF-539 > 10 µM | SNB-19 > 10 µM | SW-620 > 10 µM | U-251 > 10 µM | UACC-257 > 10 µM | UACC-62 > 10 µM

C[C@H](N[C@H]1CCC[C@]1(O)C#Cc1ccc2c(c1)OCO2)c1ccccc1
inactive: A498 > 25 µM | CAKI-1 > 25 µM | HL-60 > 25 µM | HOP-62 > 25 µM | HOP-92 11.9 µM | HT-29 > 25 µM | NCI-H226 > 25 µM | NCI-H23 > 25 µM | OVCAR-8 > 25 µM | RPMI-8226 8.89 µM | SF-268 > 25 µM | SNB-19 > 25 µM | U-251 19.7 µM | UACC-257 > 25 µM | UACC-62 > 25 µM | UO-31 > 25 µM

C/C(CC(=O)Nc1ccccc1)=N\NC(N)=S
inactive: HCT-116 > 100 µM | HL-60 > 100 µM | HOP-62 > 100 µM | HOP-92 > 100 µM | HT-29 > 100 µM | NCI-H226 > 100 µM | NCI-H23 > 100 µM | OVCAR-3 > 100 µM | OVCAR-8 > 100 µM | RPMI-8226 > 100 µM | SF-268 > 100 µM | SF-539 > 100 µM | SW-620 > 100 µM | U-251 > 100 µM | UACC-257 > 100 µM | UACC-62 > 100 µM | UO-31 > 100 µM

Cc1cc(O)nc(NN2C(Cl)C(=O)C2c2cccc(Cl)c2)n1 (configuration not stated)
inactive: HCT-116 > 10 µM | HL-60 16 µM | HOP-62 27.1 µM | HOP-92 20.6 µM | HT-29 23.4 µM | NCI-H23 20.1 µM | OVCAR-3 12.5 µM | OVCAR-8 31.1 µM | RPMI-8226 12.7 µM | SF-268 18.5 µM | SF-539 17.2 µM | SNB-19 27.9 µM | SW-620 38 µM | U-251 30.5 µM | UACC-257 32.8 µM | UACC-62 23.1 µM | UO-31 24.2 µM

CCCCCCCCCCCCSC(=S)c1c(C)[nH]n(CCCCCCCCCCCC)c1=O
inactive: A498 > 100 µM | CAKI-1 > 100 µM | HCT-116 43.6 µM | HL-60 66.7 µM | HOP-62 > 100 µM | HT-29 74.1 µM | NCI-H226 > 100 µM | NCI-H23 > 100 µM | OVCAR-3 > 100 µM | OVCAR-8 91.2 µM | RPMI-8226 94.8 µM | SF-268 48.9 µM | SF-539 > 100 µM | SNB-19 > 100 µM | SW-620 77.6 µM | U-251 > 100 µM | UACC-257 > 100 µM | UACC-62 > 100 µM | UO-31 88.1 µM
